Data: patent US9150608B2, “Neuro-protective compounds and their use” (Biotechnology Research Corp. Ltd., priority 2010, dated 2015)

How the values were obtained:
[1] = system: phosphorylated ERK, CREB, Akt, P38, MEK in cortical neurons; assay: Western blot detection of signaling proteins in cortical neurons; type: cell-based, rat; details: cortical neurons 7DIV
[2] = system: cortical neurons in the absence of B27; assay: Immunocytochemical analysis of neurons after B27 withdrawal; type: cell-based, rat; details: 30 μM, pre-treated 24 hours
Experimental: FIG. 10. Immunofluorescence staining of cortical neurons pretreated with Adelostemma gracillimum refined fraction or fraction AG-3 in the absence of B27. […] Cortical neuronal cultures of 7DIV were pre-treated with AG-0 (30 μg/mL), AG-3 (30 μg/mL), or BDNF (50 ng/mL) for 24 hours, then the medium was changed to one lacking B27. Cultures were fixed with 4% paraformaldehyde, immunostained with beta-tubulin type III antibody, and visualized with FITC-conjugated anti-mouse antibody. Cell bodies were highlighted by DAPI staining. DMSO was used as a solvent control. Images are shown at 40× magnification.
FIG. 21. Immunofluorescence staining of GAG-C27-treated cortical neurons in the absence of B27. Cortical neuronal cultures of 7DIV were pre-treated with AG-0 (30 μg/mL), GAG-C27 (30 μM), or BDNF (50 ng/mL) for 24 hours, after which the medium was changed to one lacking B27. Cultures were fixed with 4% paraformaldehyde, immunostained with beta-tubulin type III antibody, and visualized with FITC-conjugated anti-mouse antibody. Cell bodies were highlighted by DAPI staining. DMSO was used as a solvent control. […]
Cortical neurons were plated on 35-mm dishes (NUNC) at a density of 1×10^6 cells per plate using Neurobasal medium (Invitrogen) supplemented with 2% B27 (Invitrogen). […] Cell morphology was then analyzed using a fluorescence microscope with a 40× objective (DMRA; Leica). […]

[3] = system: rat cortical neurons cultured in the absence of B27; assay: Cortical neuron survival assay with B27 withdrawal (MTT); type: cell-based; details: for cell survival of cortical neurons in the absence of B27 (MTT): 30 μM, pre-treated 24 hours (FIG. 15); for concentration showing neuroprotective effect in the absence of B27 (MTT): primary cortical neurons 7DIV, dose-dependent study 1-30 μM
Experimental: FIG. 2. Adelostemma gracillimum refined fraction promotes rat cortical neuron survival against B27 withdrawal. Cortical neurons isolated from embryonic day 18 rats were cultured in Neurobasal medium supplemented with 2 % B27. […] A MTT assay was performed 24 hours later. Cell survival is presented as a percentage compared to a DMSO control in the presence of B27 (“CTL with B27”). Assays were conducted in triplicate and repeated at least twice. *=P<0.05.
Primary cortical neurons were cultured in Neurobasal medium and supplemented with B27, a proprietary formula of Life Technologies. The combination of Neurobasal medium and B27 provides a stable growth environment for primary neurons to maturity in vitro. Neurons undergo apoptosis or cell death in the absence of B27. To study the neuroprotective effect of Adelostemma gracillimum refined fraction, neurons of 7DIV were treated with AG-0 and cell survival was measured as mitochondrial activity by the MTT assay.
The cells were then washed with Hanks' solution twice and replaced with test samples that were serial diluted in Neurobasal medium. A tetrazole, 3-(4,5-Dimethylthiazol-2-yl)-2,5-diphenyltetrazolium bromide (MTT, 5 mg/ml) was added to the medium at a ratio of 1:10 after a 2-day incubation. MTT is reduced by living cells into purple formazan and further solubilized in 20% SDS solution; therefore, the colored solution was measured by spectrophotometer and cell viability was quantified.

[4] = system: cyclic AMP response (CRE) element; assay: CRE-dependent transcription assay (luciferase); type: cell-based, rat; details: hippocampal neurons 12DIV, 50 μM, 6 hours
Experimental: FIG. 41. GAG compounds enhance CRE-dependent transcription activity. GAG-C14 (a), GAG-C53 (b), GAG-C63 (c), GAG-C69 (d), GAG-C84 (e), GAG-C111 (f), GAG-C122 (g), GAG-C123 (h), and GAG-C129 (i) induce CRE-dependent transcriptional activity in cultured hippocampal neurons. On the day of cell seeding, hippocampal neurons were transfected with a firefly luciferase reporter plasmid containing cyclic AMP response (CRE)-element. The cells at 12 DIV were then treated with 50 μM of AG compounds for 6 hours. Data are mean±SEM (n=3-4), *=P<0.05, **=P<0.01, and ***=P<0.005 versus vehicle-treated cells (0 μM), student's t test.
Cultured hippocampal neurons were transfected with a firefly luciferase reporter plasmid containing a cyclic AMP response (CRE) element. At 12DIV, the cells were treated with 50 μM of compound for 6 hours, then CRE-dependent transcription activity was assayed by measuring luciferase levels.
Freshly isolated embryonic cortical neurons were transfected with a luciferase reporter gene (Cre-Luc) linked to CREB activation following the ACM lipofectamine method using Lipofectamine 2000, a cationic liposome based reagent (Invitrogen). […] Transfection was performed using 1 μL Lipofectamine 2000 and 0.4 μg DNA per well. Neurons were then treated with test samples for time periods of 6 hours. After treatment, the cells were washed with ice-cold DPBS and 100 μL of 1× luciferase lysis buffer (Promega) was added. The plates were placed in −20° C. to freeze the cells, after which they were thawed to facilitate lysis. The lysates were transferred onto white bottom plates and assayed for renilla luciferase using the luciferase assay kit (Promega). Increased CREB activation in the neurons leads to an enhanced luciferase production and this was quantified using a Promega GloMax™ 96 microplate luminometer. […] BDNF and rolipram were used as positive controls.

hippocampal neurons = assay: Quantification of spine (dendritic spine morphology); type: cell-based, rat; details: hippocampal neurons 14DIV, 10 μM, 24 hr, vs DMSO
Experimental: FIG. 38. GAG-C14 modulates spine morphogenesis. Hippocampal neurons were transfected with enhanced green fluorescent protein (EGFP) construct at 7DIV by calcium phosphate precipitation. The GFP-expressing neurons at 14DIV were then treated with 10 μM GAG-C14 or DMSO vehicle control for 24 hr. The dendritic spine morphology of hippocampal neurons was examined by confocal microscopy.
Cultured hippocampal neurons were seeded on 18 mm coverslips coated with poly-D-lysine in 12-well-plates (Falcon). The neurons were then grown in Neurobasal medium (Invitrogen) supplemented with 2% B27 (Invitrogen) and 0.5 mM glutamine. To visualize the morphology of dendritic spines, the neurons were transfected with GFP DNA construct between 7-9 DIV by using calcium phosphate precipitation. To examine the development of dendritic spines, the neurons were treated with the test compound on 14 DIV. The neurons were then fixed with 4% paraformaldehyde and morphology was examined using confocal microscopy. To quantify spine density in cultured hippocampal neurons, a stack of images (z step, 0.5 μm) was collected using a 60× objective. Images were merged and analyzed using MetaMorph software (Universal Imaging Corp). Dendritic spines, defined as protrusions at least 0.5 μm from the dendritic surface, were scored and expressed as per μm length of dendrite. Three dendrites from each neuron was randomly selected and quantified in a double-blinded manner. For each experimental condition, twenty to thirty neurons were analyzed from 3 independent experiments. Data was presented as mean±SEM.

CREB promoter = CREB promoter assay (luciferase) in cortical neurons; type: cell-based, rat; details: cortical neurons 7DIV, 6 hours incubation
Experimental: FIG. 26. GAG-C77 increases CREB-promoter activity in primary cortical neurons. Primary cortical neuronal cultures (7DIV) transfected with a luciferase-CREB promoter construct were treated with GAG-C69 or GAG-C77 (concentration depicted in [μM]). Cell lysates were collected after 6 hours incubation and luciferase activity was measured. BDNF [ng/mL] and rolipram [μM] were used as positive controls. Assays were conducted in triplicate. *=P<0.05; **=P<0.005.
Freshly isolated embryonic cortical neurons were transfected with a luciferase reporter gene (Cre-Luc) linked to CREB activation following the ACM lipofectamine method using Lipofectamine 2000, a cationic liposome based reagent (Invitrogen). […] Transfection was performed using 1 μL Lipofectamine 2000 and 0.4 μg DNA per well. Neurons were then treated with test samples for time periods of 6 hours. After treatment, the cells were washed with ice-cold DPBS and 100 μL of 1× luciferase lysis buffer (Promega) was added. The plates were placed in −20° C. to freeze the cells, after which they were thawed to facilitate lysis. The lysates were transferred onto white bottom plates and assayed for renilla luciferase using the luciferase assay kit (Promega). Increased CREB activation in the neurons leads to an enhanced luciferase production and this was quantified using a Promega GloMax™ 96 microplate luminometer. […]

Compound	AKT protein phosphorylation ([1]; 10 μM)	ERK phosphorylation time course ([1]; 10 μM)	phosphorylated P38 ([1]; 10 μM, after 30 min of incubation)	protection from cell death after B27 withdrawal (immunofluorescence staining) [2]	cell survival of cortical neurons in the absence of B27 (MTT) [3]	concentration showing neuroprotective effect in the absence of B27 (MTT) [3] [µM]	CRE-dependent transcription activity (luciferase) [4]	frequency / percentage of filopodia (hippocampal neurons)	percentage of large spines (head>1 μm) (hippocampal neurons)	spine density (hippocampal neurons)	ERK phosphorylation time course ([1]; 30 μM)	CREB phosphorylation ([1]; 30 μM, 15 min of incubation)	luciferase activity driven by the CREB promoter (CREB promoter)
3-O-β-D-Cymaropyranose-(1→4)-β-D-Digitoxopyranose-12-cis-cinnamyl-20-acetyl-8,14-seco-sacrostin [GAG-C27]	no effect	induced ERK phosphorylation in cortical neurons after 15 min, which was sustained for 60 min	reduction	protected cortical neurons from cell death	promoted cell survival	30	–	–	–	–	–	–	–
CCCCCCCCCCCCCCCC(=O)OCC(O)CO (centres unmarked) [GAG-C14, 2,3-dihydroxypropyl palmitate]	no observable effect	induced ERK phosphorylation in cortical neurons after 15 min and the effect remained for 90 min	–	–	–	–	enhances CRE-dependent transcription	reduction in the frequency of filopodia	significantly increased	increase in spine density	–	–	–
COc1cc(C2Oc3c(OC)cc(C=O)cc3C2C)ccc1O (centres unmarked) [GAG-C77, 4-hydroxyl-3,3′-dimethyoxyl-4″,7-epoxy-8,5′-oxyneoligna-7′-al]	–	–	–	–	promoted cell survival	10 to 30	–	–	–	–	significantly induced ERK phosphorylation in cortical neurons from 15 min and persistently to 180 min	induced CREB phosphorylation	significantly induce luciferase activity
